Data published in US20200031778A1, “NOVEL 5-SUBSTITUTED IMIDAZOLYLMETHYL DERIVATIVES” (Bayer CropScience Aktiengesellschaft, priority 2016, published 2020).
Like-named read-outs stand apart in the source and are kept apart here.

What was measured:
[1] = Log P by HPLC on reversed phase columns (EEC directive 79/831 Annex V.A8; methods [a], [b], [c]); format: physicochemical; conditions: method [a]
Method in brief: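 Reversed-phase HPLC with LC-UV detection, 10→95% acetonitrile linear gradient; aqueous eluent 0.1% formic acid [a], 0.001 M ammonium acetate, neutral [b], or 0.1% phosphoric acid [c]. Calibrated against C3–C16 alkan-2-ones of known Log P by retention-time linear interpolation; multiple values within a method separated by "+".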

[2] = system: Puccinia recondita; assay: Example B: in vivo preventive test on Puccinia recondita (brown rust on wheat); conditions: 264 h, read-out: efficacy
Experimental: Example B: In Vivo Preventive Test on Puccinia Recondita (Brown Rust on Wheat)
(§1) The active ingredients were made soluble and homogenized in a mixture of Dimethyl sulfoxide/Acetone/Tween® 80 and then diluted in water to the desired concentration.
(§2) The young plants of wheat were treated by spraying the active ingredient prepared as described above. Control plants were treated only with an aqueous solution of Acetone/Dimethyl sulfoxide/Tween® 80.
After 24 hours, the plants were contaminated by spraying the leaves with an aqueous suspension of Puccinia recondita spores. The contaminated wheat plants were incubated for 24 hours at 20° C. and at 100% relative humidity and then for 10 days at 20° C. and at 70-80% relative humidity.
(§3) The test was evaluated 11 days after the inoculation. 0% means an efficacy which corresponds to that of the control plants while an efficacy of 100% means that no disease was observed.

[3] = system: Septoria tritici; assay: Example C: in vivo preventive test on Septoria tritici (leaf spot on wheat); conditions: Zymoseptoria tritici, 576 h, read-out: efficacy
Experimental: Example C: In Vivo Preventive Test on Septoria Tritici (Leaf Spot on Wheat)
as §1, §2
After 24 hours, the plants were contaminated by spraying the leaves with an aqueous suspension of Septoria tritici spores. The contaminated wheat plants were incubated for 72 hours at 18° C. and at 100% relative humidity and then for 21 days at 20° C. and at 90% relative humidity.
The test was evaluated 24 days after the inoculation. 0% means an efficacy which corresponds to that of the control plants while an efficacy of 100% means that no disease was observed.

[4] = system: Sphaerotheca fuliginea; assay: Example D: in vivo preventive test on Sphaerotheca fuliginea (powdery mildew on cucurbits); conditions: Podosphaera fuliginea, 360 h, read-out: efficacy
Experimental: Example D: In Vivo Preventive Test on Sphaerotheca Fuliginea (Powdery Mildew on Cucurbits)
as §1
The young plants of gherkin were treated by spraying the active ingredient prepared as described above. Control plants were treated only with an aqueous solution of Acetone/Dimethyl sulfoxide/Tween® 80.
After 24 hours, the plants were contaminated by spraying the leaves with an aqueous suspension of Sphaerotheca fuliginea spores. The contaminated gherkin plants were incubated for 72 hours at 18° C. and at 100% relative humidity and then for 12 days at 20° C. and at 70-80% relative humidity.
The test was evaluated 15 days after the inoculation. 0% means an efficacy which corresponds to that of the control plants while an efficacy of 100% means that no disease was observed.

[5] = system: Uromyces appendiculatus; assay: Example E: in vivo preventive test on Uromyces appendiculatus (bean rust); conditions: 264 h, read-out: efficacy
Experimental: Example E: In Vivo Preventive Test on Uromyces Appendiculatus (Bean Rust)
as §1
The young plants of bean were treated by spraying the active ingredient prepared as described above. Control plants were treated only with an aqueous solution of Acetone/Dimethyl sulfoxide/Tween® 80.
After 24 hours, the plants were contaminated by spraying the leaves with an aqueous suspension of Uromyces appendiculatus spores. The contaminated bean plants were incubated for 24 hours at 20° C. and at 100% relative humidity and then for 10 days at 20° C. and at 70-80% relative humidity.
as §3

[6] = reversed phase HPLC column, HPLC on reversed phase columns
[7] = 500 ppm of active ingredient, wheat plants, preventive spray, evaluated 11 days after inoculation
[8] = 500 ppm of active ingredient, wheat plants, preventive spray, evaluated 24 days after inoculation
[9] = 500 ppm of active ingredient, gherkin plants, preventive spray, evaluated 15 days after inoculation
[10] = 500 ppm of active ingredient, bean plants, preventive spray, evaluated 11 days after inoculation

Structure (SMILES) | chromatographic logP [1, 6] | chromatographic logP ([1]; HPLC on reversed phase columns) | pest or weed control at 500 ppm [2] | pest or weed control at 500 ppm [3] | pest or weed control at 500 ppm [4] | pest or weed control at 500 ppm [5] | pest or weed control at 500 ppm [2, 7] | pest or weed control at 500 ppm [3, 8] | pest or weed control at 500 ppm [4, 9] | pest or weed control at 500 ppm [5, 10] | chromatographic logP ([1]; HPLC on reversed phase column)
C#Cc1ccc(C(O)(Cn2cncc2C#N)C2(F)CC2)c(Cl)c1 (centres unmarked) [I-395, 3-[2-(2-chloro-4-ethynyl-phenyl)-2-(1-fluorocyclopropyl)-2-hydroxy-ethyl]imidazole-4-carbonitrile] | – | 2.39 | 80 to 89% | 90 to 100% | 90 to 100% | 90 to 100% | – | – | – | – | –
N#Cc1cncn1CC(O)c1ccc(Oc2ccc(Br)cc2)cc1Cl (centres unmarked) [I-40, 3-[2-[4-(4-bromophenoxy)-2-chloro-phenyl]-2-hydroxy-ethyl]imidazole-4-carbonitrile] | 3.31 | – | – | – | – | – | 90 to 100% | 80 to 89% | 90 to 100% | 90 to 100% | –
OC(Cn1cncc1F)c1cnc(Oc2ccc(Br)cc2)cc1C(F)(F)F (centres unmarked) [I-97, 1-[6-(4-bromophenoxy)-4-(trifluoromethyl)-3-pyridyl]-2-(5-fluoroimidazol-1-yl)ethanol] | 2.25 | – | – | – | – | – | 70 to 79% | 90 to 100% | 90 to 100% | 90 to 100% | –
C#CCOc1ccc(C(O)(Cn2cncc2C#N)C2(F)CC2)c(F)c1 (centres unmarked) [I-506, 3-[2-(1-fluorocyclopropyl)-2-(2-fluoro-4-prop-2-ynoxy-phenyl)-2-hydroxy-ethyl]imidazole-4-carbonitrile] | – | – | 80 to 89% | 90 to 100% | 90 to 100% | 80 to 89% | – | – | – | – | 2.23
CC(O)(Cn1cncc1C#N)c1ccc(Oc2ccc(Br)cc2)cc1C(F)(F)F (centres unmarked) [I-208, 1-{2-[4-(4-bromophenoxy)-2-(trifluoromethyl)phenyl]-2-hydroxypropyl}-1H-imidazole-5-carbonitrile] | 3.62 | – | – | – | – | – | 90 to 100% | 70 to 79% | 90 to 100% | 90 to 100% | –

Further lines, with some results ahead:

chromatographic logP [1, 6] | Structure (SMILES) | chromatographic logP ([1]; HPLC on reversed phase columns) | pest or weed control at 500 ppm [2] | pest or weed control at 500 ppm [3] | pest or weed control at 500 ppm [4] | pest or weed control at 500 ppm [5] | pest or weed control at 500 ppm [2, 7] | pest or weed control at 500 ppm [3, 8] | pest or weed control at 500 ppm [4, 9] | pest or weed control at 500 ppm [5, 10] | chromatographic logP ([1]; HPLC on reversed phase column)
1.75 | NC(=S)c1cncn1CC(O)(c1ccc(Br)cc1Cl)C1(F)CC1 (centres unmarked) [I-432, 3-[2-(4-bromo-2-chloro-phenyl)-2-(1-fluorocyclopropyl)-2-hydroxy-ethyl]imidazole-4-carbothioamide] | – | – | – | – | – | 90 to 100% | 90 to 100% | 90 to 100% | 90 to 100% | –
2.37 | CC(O)(Cn1cncc1F)c1cnc(Oc2ccc(Br)cc2)cc1C(F)(F)F (centres unmarked) [I-210, 2-[6-(4-bromophenoxy)-4-(trifluoromethyl)-3-pyridyl]-1-(5-fluoroimidazol-1-yl)propan-2-ol] | – | – | – | – | – | 70 to 79% | 90 to 100% | 90 to 100% | 90 to 100% | –
